# Columns and labels:
# Type in all cases: physicochemical
# [1] = Flowability of amino acid derivative powders in confined state (annular shear cell, Evolution Powder Tester, pre-consolidation); details: tests with confinement, densified with pre-consolidation forces
# Experimental: (§1) The flowability of 15 samples of amino acid powders was tested. The flowability of each powder in unconfined state was assessed by powder flow analysis in a rotating drum (“revolution analyzer”), by testing mass flow through a funnel, and by determining the angle of repose. The latter two measurements were performed according to chapter 1174 of the U.S. Pharmacopeia. The flowability of the samples at a confided state was analyzed by measurements with an annular shear cell and by using the Evolution Powder Tester device by PS Prozesstechnik GmbH, Basel. In these tests, the samples were initially densified with different pre-consolidation forces.
# [2] = Flowability of amino acid derivative powders in unconfined state (rotating drum, mass flow through a funnel, angle of repose); details: powder, tests without confinement
# Experimental: as §1
# [3] = Concentration in saturated dimethyl formamide solution by analytical RP-UHPLC; details: room temperature
# Experimental: The concentration of the same amino acids in saturated solutions of dimethyl formamide at room temperature was determined by analytical reversed phase ultrahigh pressure liquid chromatography. The values ranged from below 200 mg/ml for Fmoc-Pro-OH over around 400 mg/ml for Fmoc-Ala-OH to above 600 mg/ml for Fmoc-Gly-OH.
SMILES,flowability [1],flowability [2],concentration in saturated solution [3]
O=C(N[C@@H](CSC(c1ccccc1)(c1ccccc1)c1ccccc1)C(=O)O)OCC1c2ccccc2-c2ccccc21 [Fmoc-Cys(Trt)-OH],good flowability,good flowability,
CSCC[C@H](NC(=O)OCC1c2ccccc2-c2ccccc21)C(=O)O [Fmoc-Met-OH],,good flowability,
O=C(O)[C@@H]1CCCN1C(=O)OCC1c2ccccc2-c2ccccc21 [Fmoc-Pro-OH],good flowability,poor flowability parameters,below 200 mg/ml
CC(C)(C)OC(=O)NCCCC[C@H](NC(=O)OCC1c2ccccc2-c2ccccc21)C(=O)O [Fmoc-Lys(Boc)-OH],poor flowability,,
C[C@H](NC(=O)OCC1c2ccccc2-c2ccccc21)C(=O)O [Fmoc-Ala-OH],Medium values,poor flowability parameters,around 400 mg/ml
O=C(O)CNC(=O)OCC1c2ccccc2-c2ccccc21 [Fmoc-Gly-OH],poor flowability,good,above 600 mg/ml

# — patent US20220387958A1, “APPARATUS AND METHOD FOR ITERATIVE POLYMER SYNTHESIS” (BACHEM AG, priority 2019, published 2022)
